Laboratory results as given in patent publication US20040248991A1, “Compositions for lessening oxidative stress” (priority 2001, published 2004).

Key:
rats = details: continuous administration, 1200 mg/kg/day for 52 weeks; cited from earlier work
urinary 8OH-dG [1] = assay: Oxidative stress lessening effect on normal rat (urinary 8OH-dG by ELISA); assay type: in vivo; details: SD rats, oral soybean oil solution, 100 mg/kg/day for 4 weeks
Method: (§1) The effect of lessening oxidative stress in vivo was evaluated with urinary 8-hydroxydeoxyguanosine (8OH-dG) having high effectiveness as an oxidative stress marker. This material results from nucleic acid damage due to oxidative stress, and is discharged into urine without undergoing further metabolism. It is thus thought that the amount of oxidative stress in vivo and the amount of 8OH-dG discharged have a close relationship therebetween. A decrease in amount of the material in urine means a reduction in oxidative stress in vivo and the prevention of damage to nucleic acid.
A soybean oil solution of oxidized coenzyme Q10 or reduced coenzyme Q10 (containing about 2% of oxidized coenzyme Q10) was orally administered to SD rats (6-week old, male) in a dose of 100 mg/kg/day for 4 weeks. 4 weeks after, urine was collected, and the amount of urinary 8OH-dG was determined by an ELISA kit (Japan Institute for the Control of Aging).

urinary 8OH-dG [2] = assay: Oxidative stress lessening effect on spontaneously diabetic rat (urinary 8OH-dG); assay type: in vivo; details: GK rats, 0.1% by weight in feed
Method: as §1
The oxidative stress lessening effect of each of reduced and oxidized coenzyme Q10 in vivo was evaluated by using GK rats with spontaneous diabetes which induced spleen tissue denaturation due to oxidative stress in vivo. A feed (CE-2, produced by CLEA JAPAN, INC.) containing 0.1% by weight of reduced coenzyme Q10 (containing about 2% by weight of oxidized coenzyme Q10) or oxidized coenzyme Q10 was freely given to GK rats (5-week old, male, n=4 in each group). In a control group, the feeds not containing coenzyme Q10 was freely given to the rats. 2 weeks and 4 weeks after, urine was collected, and the amount of urinary 8OH-dG was determined by the same method as in Example 1. […] In the oxidized coenzyme Q10 administration group, the amount of urinary 8OH-dG measured 2 weeks after the administration was decreased to 58% of the control group, and the amount of urinary 8OH-dG measured 4 weeks after the administration was deceased to 52% of the control group.
The oxidative stress lessening effect of a typical antioxidant, vitamin E, was evaluated by using GK rats in the same test system as in Example 2. Like coenzyme Q10, vitamin E was mixed with a feed at a ratio of 0.1% by weight, and the resulting foodstuff was freely given to the GK rats. 2 weeks and 4 weeks after the feeding, the amount of urinary 8OH-dG was determined. […] In comparison to the coenzyme Q10 administration group of Example 2, 2 weeks after, the decreasing effect in Reference Example 1 was lower the effects of both the reduced form and the oxidized form in Example 2, and 4 weeks after, the effect was at the same level as that of the oxidized coenzyme Q10 and lower than that of the reduced coenzyme Q10 in Example 2.

urinary 8OH-dG [3] = assay: Oxidative stress lessening effect on spontaneously diabetic mouse (urinary 8OH-dG); assay type: in vivo; details: KK-Ay mice, 4 weeks
Method: as §1
The dose dependency of the oxidative stress lessening effect of each of reduced and oxidized coenzyme Q10 was evaluated by the same method as that used for GK rats except that KK-Ay mice with spontaneous diabetes and having a higher blood sugar level than that of GK rats were used. KK-Ay 5-week old male mice were used, and evaluated in groups in each of which n=11. Oxidized coenzyme Q10 or reduced coenzyme Q10 (containing about 2% by weight of oxidized coenzyme Q10) was mixed with a purified feed (produced by CLEA JAPAN, INC.) at each of ratios of 0.02% by weight, 0.1% by weight, and 0.5% by weight, and each mixture was freely given to the KK-Ay mice. In a control group, the purified feed not containing coenzyme Q10 was freely given to rats. 4 weeks after the supply, urine was collected, and the amount of urinary 8OH-dG was determined by the same method as in Example 1. […] In the reduced coenzyme Q10 administration group, with a dose of 0.02% by weight, the lessening effect was low (82% of the control group), while with a dose of 0.1% by weight or more, the lessening effect was significant (dose of 0.1% by weight: 73% of the control group, dose of 0.5% by weight: 56% of the control group). In the oxidized coenzyme Q10 administration group, the dose-dependent lessening effect was observed without showing a significant difference, and with a dose of 0.5% by weight, the amount of urinary 8OH-dG was 78% of that of the control group.

[4] = test system: spleen tissues of GK rats; assay: Tissue protecting effect on spontaneously diabetic rat (histopathological evaluation of spleen tissue denaturation); assay type: in vivo; details: oral administration for 7 weeks, spleen histopathology, four examples per group
Method: The protective effect of each of oxidized coenzyme Q10 and reduced coenzyme Q10 (containing about 2% by weight of oxidized coenzyme Q10) on denaturation of the spleen tissues of GK rats by using the same test system as in Example 1. As a control, a soybean oil solution not containing coenzyme Q10 was orally administered. After the coenzyme Q10 was administered for 7 weeks, the spleen was extracted from each rat, and the degree of tissue denaturation was histopathologically evaluated.
The tissue protecting effect of vitamin E was evaluated by the same method as in Example 4.

[5] = cited from earlier work
kidney dialysis patients = details: daily dose of 800 IU; cited from earlier work
[6] = 2 weeks after the administration
[7] = 4 weeks after the administration
[8] = listed as Oxidized coenzyme Q10

Compound | toxic effect in chronic toxicity test (rats) | amount of urinary 8OH-dG relative to solvent control group (assumed as 100%) (urinary 8OH-dG [1]) | amount of urinary 8OH-dG relative to control group (assumed as 100%) (urinary 8OH-dG [2]; [6]) | amount of urinary 8OH-dG relative to control group (assumed as 100%) (urinary 8OH-dG [2]; [7]) | amount of urinary 8OH-dG relative to control group (urinary 8OH-dG [3]; 0.5% by weight in feed) [%] | Number of examples with finding: Islet fibrillation 1+ [4] | Number of examples with finding: Islet fibrillation 2+ [4] | Number of examples with finding: Normal [4] | Number of examples with finding: Islet fibrillation 1+ [4, 8] | Number of examples with finding: Islet fibrillation 2+ [4, 8] | antioxidative activity in vitro [5] | amount of urinary 8OH-dG relative to control group (urinary 8OH-dG [3]; 0.02% by weight in feed) [%] | amount of urinary 8OH-dG relative to control group (urinary 8OH-dG [3]; 0.1% by weight in feed) [%] | Number of examples with finding: Islet fibrillation 1+ ([4]; listed as Reduced coenzyme Q10) | Number of examples with finding: Islet fibrillation 2+ ([4]; listed as Reduced coenzyme Q10) | Number of examples with finding: Islet fibrillation 1+ ([4]; listed as VE) | Number of examples with finding: Islet fibrillation 2+ ([4]; listed as VE) | increase of risk of brain hemorrhage as a side effect (kidney dialysis patients) [%] | patients died from hemorrhagic diseases (kidney dialysis patients)
COC1=C(OC)C(=O)C(C/C=C(\C)CC/C=C(\C)CC/C=C(\C)CC/C=C(\C)CC/C=C(\C)CC/C=C(\C)CC/C=C(\C)CC/C=C(\C)CC/C=C(\C)CCC=C(C)C)=C(C)C1=O [coenzyme Q10] | no toxic effect was observed |  |  |  |  |  |  |  |  |  |  |  |  |  |  |  |  |  | 
COC1=C(OC)C(=O)C(C/C=C(\C)CC/C=C(\C)CC/C=C(\C)CC/C=C(\C)CC/C=C(\C)CC/C=C(\C)CC/C=C(\C)CC/C=C(\C)CC/C=C(\C)CCC=C(C)C)=C(C)C1=O [oxidized coenzyme Q10] |  | about 60% | 58% | 52% | 78 | two | two | 0 | 2 | 2 | exhibits no antioxidative activity |  |  |  |  |  |  |  | 
COc1c(O)c(C)c(C/C=C(\C)CC/C=C(\C)CC/C=C(\C)CC/C=C(\C)CC/C=C(\C)CC/C=C(\C)CC/C=C(\C)CC/C=C(\C)CC/C=C(\C)CCC=C(C)C)c(O)c1OC [reduced coenzyme Q10] |  | about 40% | about 40% | kept at the same level | 56 | tree | one | 0 |  |  | exhibits antioxidative activity in vitro | 82 | 73 | 3 | 1 |  |  |  | 
vitamin E [reference compound] |  |  | about 80% | 51% |  | two | two | 0 |  |  |  |  |  |  |  | 2 | 2 | 63 | two
